Target: T1, BTK (Homo sapiens, UniProt Q06187)
T1 construct: endogenous in cells; host or cells: TMD8 cells
Test: Cellular BTK HTRF assay (BTK degradation) in TMD8 cells
Type: cell-based
Conditions: four hours incubation, Total-BTK HTRF relative to DMSO-treated cells
Method: Example 66: BTK Degradation Assay
TMD8 cells were obtained from Tokyo Medical and Dental University and were grown in alpha-MEM (Fisher 12571063) supplemented with 10% heat-inactivated FBS (Corning Premium Fetal Bovine Serum from Fisher, MT35015CV).
Compounds of the present invention were added to 50,000 TMD8 cells in round-bottom 96 well plates with a final DMSO concentration of […] and were incubated at 37° C. 5% CO2 for four hours. BTK levels were determined using Cisbio Total-BTK HTRF ([…] Time-Resolved Fluorescence) kit (63ADK064PEG) according to manufacturer's protocol. Briefly, cells were incubated in 1× supplied lysis buffer for 30 minutes. In an opaque white low volume 96 well plate (Cisbio, 66PL96005), cell lysate was combined with two different specific BTK antibodies, one conjugated with Eu^3+-Cryptate FRET donor and one conjugated with d2 FRET acceptor. Assay controls include wells containing cell lysate with only the Eu^3+-Cryptate FRET donor antibody and wells containing both HTRF antibodies and lysis buffer without cells or control lysate provided by Cisbio. HTRF ratio was calculated as (acceptor signal at 665 nm/donor signal at 620 nm)×10^4. Background HTRF levels were determined from the control well containing the donor, but no acceptor, antibody. Background HTRF levels were subtracted from all samples. Readouts were reported as HTRF levels relative to HTRF levels of DMSO-treated cells. Four-parameter non-linear regressions were performed in GraphPad Prism 7.02 to obtain DC50 values. DC50 values are provided in Table 3, wherein A<5.0 nM, 5.0 nM≤B≤15 nM, and 15 nM<C.

T1 sequence (Q06187 whole entry): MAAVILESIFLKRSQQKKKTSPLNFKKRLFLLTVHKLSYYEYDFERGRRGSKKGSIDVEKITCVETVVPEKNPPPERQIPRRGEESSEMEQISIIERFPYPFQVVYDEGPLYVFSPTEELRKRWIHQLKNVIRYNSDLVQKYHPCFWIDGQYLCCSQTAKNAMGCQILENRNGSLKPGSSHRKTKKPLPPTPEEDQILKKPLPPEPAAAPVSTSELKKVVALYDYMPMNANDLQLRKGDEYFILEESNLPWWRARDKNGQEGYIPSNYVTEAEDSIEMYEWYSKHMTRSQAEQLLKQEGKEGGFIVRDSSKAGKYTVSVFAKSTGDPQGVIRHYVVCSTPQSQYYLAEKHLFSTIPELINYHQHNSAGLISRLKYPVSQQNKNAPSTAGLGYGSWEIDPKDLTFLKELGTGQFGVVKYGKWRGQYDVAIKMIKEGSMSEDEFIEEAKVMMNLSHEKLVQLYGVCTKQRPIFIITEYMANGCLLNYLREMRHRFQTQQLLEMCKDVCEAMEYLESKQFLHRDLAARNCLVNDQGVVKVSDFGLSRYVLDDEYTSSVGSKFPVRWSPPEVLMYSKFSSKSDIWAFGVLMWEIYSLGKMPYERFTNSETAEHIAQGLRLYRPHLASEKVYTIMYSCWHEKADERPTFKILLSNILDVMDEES

Row | DC50 [nM] | SMILES
1 | > 15 | CN1CCN([C@@H]2CCCN(c3cnc(C(N)=O)c(Nc4ccc(C(=O)NCCOCCOCCOCCNc5cccc6c5C(=O)N(C5CCC(=O)NC5=O)C6=O)cc4)n3)C2)C1=O (stereo partly drawn) [Compound 3]
2 | < 5 | CN1CCN([C@H]2CCCN(c3cnc(C(N)=O)c(Nc4ccc(N5CCC6(CC5)CN(c5ccc7c(c5)C(=O)N(N5CCC(=O)NC5=O)C7=O)C6)cc4)n3)C2)C1=O [Compound 112]
3 | > 15 | NC(=O)c1ncc(N2CCCCC2)nc1Nc1ccc(C2CCN(CC3CCN(c4ccc(NC5CCC(=O)NC5=O)cn4)CC3)CC2)cc1 (stereo not drawn) [Compound 167]
4 | < 5 | CN1CCN([C@@H]2CCCN(c3cnc(C(N)=O)c(Nc4ccc(C5CCN(C[C@H]6CCN(c7ccc8c(=O)n(C9CCC(=O)NC9=O)ccc8c7)C6)CC5)cc4)n3)C2)C1=O (stereo partly drawn) [Compound 115]
5 | > 15 | CN1CCN([C@@H]2CCCN(c3cnc(C(N)=O)c(Nc4ccc(OCCCNC(=O)CCCc5cccc6c5CN(C5CCC(=O)NC5=O)C6=O)cc4)n3)C2)C1=O (stereo partly drawn) [Compound 6]
6 | > 15 | NC(=O)c1ncc(N2CCCCC2)nc1Nc1ccc(N2CCC3(CC2)CCN(c2ccc4c(c2)C(=O)N(C2CCC(=O)NC2=O)C4=O)CC3)cc1 (stereo not drawn) [Compound 124]
7 | < 5 | CN1CCN(C2CCCN(c3cnc(C(N)=O)c(Nc4ccc(C5CCN(CC6CCN(c7ccc8c(c7)CN(C7CCC(=O)NC7=O)C8=O)C6)CC5)cc4)n3)C2)C1=O (stereo not drawn) [Compound 152]
8 | > 15 | CN1CCN([C@@H]2CCCN(c3cnc(C(N)=O)c(Nc4ccc(N5CCN(Cc6ccc7c(c6)C(=O)N(C6CCC(=O)NC6=O)C7=O)CC5)cc4)n3)C2)C1=O (stereo partly drawn) [Compound 100]
9 | < 5 | CN1CCN([C@@H]2CCCN(c3cnc(C(N)=O)c(Nc4ccc(C5CCN(CC6CCN(c7ccc(-c8nn(C9CCC(=O)NC9=O)c(=O)n8C)cc7)CC6)CC5)cc4)n3)C2)C1=O (stereo partly drawn) [Compound 121]
10 | 5 to 15 | CN1CCN([C@@H]2CCCN(c3cnc(C(N)=O)c(Nc4ccc(C5(C)CCN(C(=O)CCOCCCc6ccc7c(c6)C(=O)N(C6CCC(=O)NC6=O)C7=O)CC5)cc4)n3)C2)C1=O (stereo partly drawn) [Compound 10]
11 | 5 to 15 | NC(=O)c1ncc(N2CCC(C(=O)O)CC2)nc1Nc1ccc(C2CCN(C[C@H]3CCN(c4ccc5c(c4)C(=O)N(C4CCC(=O)NC4=O)C5=O)C3)CC2)cc1 (stereo partly drawn) [Compound 159]
12 | < 5 | CN1CCN([C@@H]2CCCN(c3cnc(C(N)=O)c(Nc4ccc(C5CCN(C[C@H]6CCN(c7ccc8c(=O)n(C9CCC(=O)NC9=O)ccc8c7)C6)CC5)cc4)n3)C2)C1=O (stereo partly drawn) [Compound 134]
13 | < 5 | CN1CCN([C@@H]2CCCN(c3cnc(C(N)=O)c(Nc4ccc(C5CCN(CC6CCN(c7cnn(C8CCC(=O)NC8=O)c(=O)c7)CC6)CC5)cc4)n3)C2)C1=O (stereo partly drawn) [Compound 120]
14 | < 5 | NC(=O)c1ncc(N2CCC[C@@H](N3CCOC3=O)C2)nc1Nc1ccc(C2CCN(CC3CCN(c4ccc5c(=O)n(C6CCC(=O)NC6=O)ccc5c4)CC3)CC2)cc1 (stereo partly drawn) [Compound 153]
15 | < 5 | CN1CCN([C@@H]2CCCN(c3cnc(C(N)=O)c(Nc4ccc(C5CCN(C[C@@H]6CCCN(c7ccc8c(c7)C(=O)N(C7CCC(=O)NC7=O)C8=O)C6)CC5)cc4)n3)C2)C1=O (stereo partly drawn) [Compound 32, 3-((4-(1-(((3S)-1-(2-(2,6-dioxopiperidin-3-yl)-1,3-dioxoisoindolin-5-yl)piperidin-3-yl)methyl)piperidin-4-yl)phenyl)amino)-5-((R)-3-(3-methyl-2-oxoimidazolidin-1-yl)piperidin-1-yl)pyrazine-2-carboxamide]
16 | 5 to 15 | CN1CCN([C@@H]2CCCN(c3cnc(C(N)=O)c(Nc4ccc(N5CCC6CCN(Cc7ccc8c(c7)C(=O)N(N7CCC(=O)NC7=O)C8=O)CC6C5)cc4)n3)C2)C1=O (stereo partly drawn) [Compound 104]
17 | < 5 | NC(=O)c1ncc(N2CCC[C@H](N3CCCC3=O)C2)nc1Nc1ccc(C2CCN(CC3CCN(c4ccc5c(c4)CCN(C4CCC(=O)NC4=O)C5=O)CC3)CC2)cc1 (stereo partly drawn) [Compound 122]
18 | < 5 | CN1CCN([C@H]2CCCN(c3cnc(C(N)=O)c(Nc4ccc(C5CCN(CC6CCN(c7ccc(NC8CCC(=O)NC8=O)cn7)CC6)CC5)cc4)n3)C2)C1=O (stereo partly drawn) [Compound 129]
19 | < 5 | CN1CCN([C@H]2CCCN(c3cnc(C(N)=O)c(Nc4ccc(N5CCC6(CCN(c7ccc8c(c7)C(=O)N(C7CCC(=O)NC7=O)C8=O)CC6)CC5)nc4)n3)C2)C1=O (stereo partly drawn) [Compound 80]
20 | < 5 | Cn1c(-c2ccc(N3CC(CN4CCC(c5ccc(Nc6nc(N7CCC[C@H](N8CCCC8=O)C7)cnc6C(N)=O)cc5)CC4)C3)cc2)nn(C2CCC(=O)NC2=O)c1=O (stereo partly drawn) [Compound 135]
21 | 5 to 15 | CN1CCN([C@@H]2CCCN(c3cnc(C(N)=O)c(Nc4ccc(N5CCN(C[C@H]6CCN(c7ccc8c(c7)C(=O)N(C7CCC(=O)NC7=O)C8=O)C6)CC5)cn4)n3)C2)C1=O (stereo partly drawn) [Compound 89]

Row | DC50 [nM] | SMILES
22 | < 5 | Cn1cc(Nc2nc(N3CCC[C@H](N4CC5(CN(CC6CCN(c7ccc(NC8CCC(=O)NC8=O)nc7)CC6)C5)OC4=O)C3)cnc2C(N)=O)cn1 (stereo partly drawn) [Compound 132]
23 | < 5 | NC(=O)c1ncc(N2CCC(F)(F)C(CO)C2)nc1Nc1ccc(C2CCN(C[C@H]3CCN(c4ccc5c(c4)C(=O)N(C4CCC(=O)NC4=O)C5=O)C3)CC2)cc1 (stereo partly drawn) [Compound 175]
24 | < 5 | CN1CCN([C@@H]2CCCN(c3cnc(C(N)=O)c(Nc4ccc(N5CCN(C6CN(Cc7ccc8c(c7)C(=O)N(C7CCC(=O)NC7=O)C8=O)C6)CC5)cc4)n3)C2)C1=O (stereo partly drawn) [Compound 101]
25 | < 5 | CN1CCN([C@@H]2CCCN(c3cnc(C(N)=O)c(Nc4ccc(C5CCN(CCC6CCN(c7ccc8c(c7)C(=O)N(C7CCC(=O)NC7=O)C8=O)CC6)CC5)cc4)n3)C2)C1=O (stereo partly drawn) [Compound 41]
26 | < 5 | CN1CCN([C@@H]2CCCN(c3cnc(C(N)=O)c(Nc4ccc(C5CCN(CC6CCN(c7ncc(C(=O)NC8CCC(=O)NC8=O)o7)CC6)CC5)cc4)n3)C2)C1=O (stereo partly drawn) [Compound 192]
27 | > 15 | CN1CCN([C@@H]2CCCN(c3cnc(C(N)=O)c(Nc4ccc(OCCCNC(=O)[C@H]5C[C@@H](OCCCc6cccc7c6C(=O)N(C6CCC(=O)NC6=O)C7=O)C5)cc4)n3)C2)C1=O (stereo partly drawn) [Compound 5]
28 | < 5 | CN1CCN([C@@H]2CCCN(c3cnc(C(N)=O)c(Nc4ccc(N5CCN(C[C@H]6CCN(c7ccc8c(c7)C(=O)N(C7CCC(=O)NC7=O)C8=O)C6)CC5)nc4)n3)C2)C1=O (stereo partly drawn) [Compound 113]
29 | < 5 | CN1CCN([C@@H]2CCCN(c3cnc(C(N)=O)c(Nc4ccc(N5CCN(CCC6CN(c7ccc8c(c7)C(=O)N(C7CCC(=O)NC7=O)C8=O)C6)CC5)cc4)n3)C2)C1=O (stereo partly drawn) [Compound 43]
30 | < 5 | NC(=O)c1ncc(-n2cccn2)nc1Nc1ccc(C2CCN(C[C@H]3CCN(c4ccc5c(c4)C(=O)N(C4CCC(=O)NC4=O)C5=O)C3)CC2)cc1 (stereo partly drawn) [Compound 125]
31 | < 5 | CN1CCN([C@H]2CCCN(c3cnc(C(N)=O)c(Nc4ccc(C5(C)CCN([C@H]6C[C@H](Nc7cccc8c7C(=O)N(C7CCC(=O)NC7=O)C8=O)C6)CC5)cc4)n3)C2)C1=O (stereo partly drawn) [Compound 103]
32 | 5 to 15 | CN1CCN([C@H]2CCCN(c3cnc(C(N)=O)c(Nc4ccc(N5CCCC6(C5)CN(c5ccc7c(c5)C(=O)N(C5CCC(=O)NC5=O)C7=O)C6)cc4)n3)C2)C1=O (stereo partly drawn) [Compound 111]
33 | 5 to 15 | NC(=O)c1ncc(N2CCOCC2)nc1Nc1ccc(C2CCN(C[C@H]3CCN(c4ccc5c(c4)C(=O)N(C4CCC(=O)NC4=O)C5=O)C3)CC2)cc1 (stereo partly drawn) [Compound 161]
34 | < 5 | NC(=O)c1ncc(N2CCCC(N3CCCC3=O)C2)nc1Nc1ccc(C2CN(C[C@@H]3CCN(c4ccc5c(c4)C(=O)N(C4CCC(=O)NC4=O)C5=O)C3)C2)cc1 (stereo partly drawn) [Compound 146]
35 | 5 to 15 | Cn1c(-c2ccc(N3CCC(CN4CCC(c5ccc(Nc6nc(N7CCCC8(COC8)C7)cnc6C(N)=O)cc5)CC4)CC3)cc2)nn(C2CCC(=O)NC2=O)c1=O (stereo not drawn) [Compound 178]
36 | < 5 | CN1CCN([C@@H]2CCCN(c3cnc(C(N)=O)c(Nc4ccc(C5CCN(C[C@H]6CCN(c7ccc8c(c7)CN(C7CCC(=O)NC7=O)C8=O)C6)CC5)cc4)n3)C2)C1=O (stereo partly drawn) [Compound 117]
37 | < 5 | NC(=O)c1ncc(N2CCCC3(COC3)C2)nc1Nc1ccc(C2CCN(CC3CCN(c4ccc5c(=O)n(C6CCC(=O)NC6=O)ccc5c4)CC3)CC2)cc1 (stereo not drawn) [Compound 177]
38 | 5 to 15 | CN1CCN([C@@H]2CCCN(c3cnc(C(N)=O)c(Nc4ccc(C5(C)CCN(C(=O)CCCCc6cccc7c6CN(C6CCC(=O)NC6=O)C7=O)CC5)cc4)n3)C2)C1=O (stereo partly drawn) [Compound 26]
39 | < 5 | CN1CCN([C@H]2CCCN(c3cnc(C(N)=O)c(Nc4ccc(N5CCN(CCCCc6cccc7c6CN(C6CCC(=O)NC6=O)C7=O)CC5)nc4)n3)C2)C1=O (stereo partly drawn) [Compound 110]
40 | > 15 | Cc1ncsc1-c1ccc([C@H](C)NC(=O)[C@@H]2C[C@@H](O)CN2C(=O)[C@@H](NC(=O)CCCCCC(=O)N2CCC(c3ccc(Nc4nc(N5CCC[C@@H](N6CCN(C)C6=O)C5)cnc4C(N)=O)cc3)CC2)C(C)(C)C)cc1 [Compound 189]
41 | 5 to 15 | CN(c1ccc(N2CCC(CN3CCC(c4ccc(Nc5nc(N6CCCCC6)cnc5C(N)=O)cc4)CC3)CC2)nc1)C1CCC(=O)NC1=O (stereo not drawn) [Compound 181]
42 | < 5 | CN1CCN([C@@H]2CCCN(c3cnc(C(N)=O)c(Nc4ccc(N5CC6CN(CC7CCN(c8ccc9c(c8)C(=O)N(N8CCC(=O)NC8=O)C9=O)CC7)CC6C5)cc4)n3)C2)C1=O (stereo partly drawn) [Compound 114]
